The results in this text go back to US12319672B2, “Alpha-D-galactopyranoside derivatives” (Idorsia Pharmaceuticals Ltd, priority 2019, dated 2025).

One assay addresses human Gal-1 (hGal-1). Description: Competitive binding assay: binding of biotinylated hGal-1 to microplate-adsorbed asialofetuin (ASF). The following applies: Activities on hGal-1; mean values of several measurements. As to the method: (§1) Evaluation of Compound Inhibitory Activity (IC50)
(§2) The inhibitory activity of compounds is determined in competitive binding assays. This spectrophotometric assay measures the binding of biotinylated human Gal-3 (hGal-3) or human Gal-1 (hGal-1), respectively, to a microplate-adsorbed glycoprotein, asialofetuin (ASF) (Proc Natl Acad Sci USA. 2013 Mar. 26; 110(13):5052-7.). Alternatively, and preferably, a human Gal-1 version in which all six cysteines are substituted by serines may be used.
(§3) Briefly, compounds are serially diluted in DMSO (working dilutions). ASF-coated 384 well plates are supplemented with 22.8 μL/well of biotinylated hGal-3 or hGal-1 in assay buffer (i.e. 300-1000 ng/mL biotinylated hGal-3 or hGal-1) to which 1.2 μL of compound working dilutions are added and mixed.
(§4) Plates are incubated for 3 hours at 4° C., then washed with cold assay buffer (3×50 uL), incubated for 1 hour with 25 μL/well of a streptavidin-peroxidase solution (diluted in assay buffer to 80 ng/mL) at 4° C., followed by further washing steps with assay buffer (3×50 uL). Finally, 25 μL/well of ABTS substrate is added.
(§5) The calculated IC50 values may fluctuate depending on the daily assay performance. Fluctuations of this kind are known to those skilled in the art. IC50 values from several measurements are given as mean values.

A further assay addresses human Gal-3 (hGal-3) (Homo sapiens (Human), UniProt P17931). Description: Competitive binding assay: binding of biotinylated hGal-3 to microplate-adsorbed asialofetuin (ASF). The following applies: Activity on hGal-3; mean values of several measurements. On the procedure: as §1, §2, §3, §4, §5

Chain of human Gal-1 (hGal-1) (P09382 2-135 limits assumed): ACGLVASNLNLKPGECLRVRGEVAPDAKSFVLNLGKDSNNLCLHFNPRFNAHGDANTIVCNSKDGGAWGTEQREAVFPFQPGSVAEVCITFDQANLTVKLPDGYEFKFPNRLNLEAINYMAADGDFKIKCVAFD
Chain of human Gal-3 (hGal-3) (P17931 whole entry): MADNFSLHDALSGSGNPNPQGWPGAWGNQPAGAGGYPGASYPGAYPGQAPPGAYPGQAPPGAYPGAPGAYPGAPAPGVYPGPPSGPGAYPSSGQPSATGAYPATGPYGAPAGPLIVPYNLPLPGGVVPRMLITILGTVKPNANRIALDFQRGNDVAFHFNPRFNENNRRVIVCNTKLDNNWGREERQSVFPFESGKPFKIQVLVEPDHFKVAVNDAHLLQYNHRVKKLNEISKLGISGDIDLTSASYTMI

Regarding “1-(4-(3-(((2R,3R,4R,5R,6R)-3,5-dihydroxy-6-(hydroxymethyl)-4-(4-(3,4,5-trifluorophenyl)-1H-1,2,3-triazol-1-yl)tetrahydro-2H-pyran-2-yl)methyl)isoxazol-5-yl)piperidin-1-yl)ethan-1-one [Example 3.17]”, the half-maximal inhibitory concentration (IC50) at human Gal-1 (hGal-1) was 960 nM; on human Gal-3 (hGal-3), 46 nM. Take `CO[C@@H]1[C@@H](n2cc(-c3cc(F)c(F)c(F)c3)nn2)[C@@H](O)[C@@H](CO)O[C@@H]1Cc1cc(C2CCNC2)on1` (mixture of isomers) [Example 2.08, (2R,3R,4S,5R,6R)-2-(hydroxymethyl)-5-methoxy-6-((5-((RS)-pyrrolidin-3-yl)isoxazol-3-yl)methyl)-4-(4-(3,4,5-trifluorophenyl)-1H-1,2,3-triazol-1-yl)tetrahydro-2H-pyran-3-ol]: the IC50 at human Gal-1 (hGal-1) turned out to be 4500 nM; on human Gal-3 (hGal-3), 650 nM.

In the case of `CCO[C@@H]1[C@@H](n2cc(-c3cc(F)c(F)c(F)c3)nn2)[C@@H](O)[C@@H](CO)O[C@@H]1CC1CC(C2CCN(C(=O)OC(C)(C)C)CC2)=NO1` (mixture of isomers) [Example 2.31, tert-butyl 4-((RS)-5-(((2R,3R,4S,5R,6R)-3-ethoxy-5-hydroxy-6-(hydroxymethyl)-4-(4-(3,4,5-trifluorophenyl)-1H-1,2,3-triazol-1-yl)tetrahydro-2H-pyran-2-yl)methyl)-4,5-dihydroisoxazol-3-yl)piperidine-1-carboxylate], the IC50 came to 1290 nM on human Gal-1 (hGal-1) and 300 nM on human Gal-3 (hGal-3). Regarding `CC(C)(C)OC(=O)N1CCC(C2=NOC(C[C@H]3O[C@H](CO)[C@H](O)[C@H](n4cc(-c5cc(F)c(F)c(F)c5)nn4)[C@H]3OCC(F)F)C2)CC1` (mixture of isomers) [Example 2.32, tert-butyl 4-((RS)-5-(((2R,3R,4S,5R,6R)-3-(2,2-difluoroethoxy)-5-hydroxy-6-(hydroxymethyl)-4-(4-(3,4,5-trifluorophenyl)-1H-1,2,3-triazol-1-yl)tetrahydro-2H-pyran-2-yl)methyl)-4,5-dihydroisoxazol-3-yl)piperidine-1-carboxylate], the concentration for half-maximal inhibition (IC50) is 2960 nM at human Gal-1 (hGal-1) and 350 nM on human Gal-3 (hGal-3). As for `COC(=O)CO[C@@H]1[C@@H](n2cc(-c3cc(F)c(F)c(F)c3)nn2)[C@@H](O)[C@@H](CO)O[C@@H]1CC1CC(C2CCN(C(=O)OC(C)(C)C)CC2)=NO1` (mixture of isomers) [Example 2.33, tert-butyl 4-((RS)-5-(((2R,3R,4S,5R,6R)-5-hydroxy-6-(hydroxymethyl)-3-(2-methoxy-2-oxoethoxy)-4-(4-(3,4,5-trifluorophenyl)-1H-1,2,3-triazol-1-yl)tetrahydro-2H-pyran-2-yl)methyl)-4,5-dihydroisoxazol-3-yl)piperidine-1-carboxylate], the 50% inhibitory concentration (IC50) turned out to be 2450 nM at human Gal-1 (hGal-1) and 310 nM on human Gal-3 (hGal-3). With `CC(C)(C)OC(=O)N1CCC(C2=NOC(C[C@H]3O[C@H](CO)[C@H](O)[C@H](n4cc(-c5cc(F)c(F)c(F)c5)nn4)[C@H]3OCC(=O)O)C2)CC1` (mixture of isomers) [Example 2.34, 2-(((2R,3R,4S,5R,6R)-2-(((RS)-3-(1-(tert-butoxycarbonyl)piperidin-4-yl)-4,5-dihydroisoxazol-5-yl)methyl)-5-hydroxy-6-(hydroxymethyl)-4-(4-(3,4,5-trifluorophenyl)-1H-1,2,3-triazol-1-yl)tetrahydro-2H-pyran-3-yl)oxy)acetic acid], the values for the IC50 at human Gal-1 (hGal-1) and at human Gal-3 (hGal-3) were 1190 nM and 68 nM, respectively. Taken in the same sequence, the figures for `CNC(=O)CO[C@@H]1[C@@H](n2cc(-c3cc(F)c(F)c(F)c3)nn2)[C@@H](O)[C@@H](CO)O[C@@H]1CC1CC(C2CCN(C(=O)OC(C)(C)C)CC2)=NO1` (mixture of isomers) [Example 2.35, tert-butyl 4-((RS)-5-(((2R,3R,4S,5R,6R)-5-hydroxy-6-(hydroxymethyl)-3-(2-(methylamino)-2-oxoethoxy)-4-(4-(3,4,5-trifluorophenyl)-1H-1,2,3-triazol-1-yl)tetrahydro-2H-pyran-2-yl)methyl)-4,5-dihydroisoxazol-3-yl)piperidine-1-carboxylate] were 2620 nM and 140 nM. In the same order, the values of `CC(C)(C)OC(=O)N1CCC(C2=NOC(C[C@H]3O[C@H](CO)[C@H](O)[C@H](n4cc(-c5cc(F)c(F)c(F)c5)nn4)[C@H]3OCC(=O)N3CCOCC3)C2)CC1` (mixture of isomers) [Example 2.36, tert-butyl 4-((RS)-5-(((2R,3R,4S,5R,6R)-5-hydroxy-6-(hydroxymethyl)-3-(2-morpholino-2-oxoethoxy)-4-(4-(3,4,5-trifluorophenyl)-1H-1,2,3-triazol-1-yl)tetrahydro-2H-pyran-2-yl)methyl)-4,5-dihydroisoxazol-3-yl)piperidine-1-carboxylate] are 2770 nM and 120 nM. Taken in the same sequence, the figures for `OC[C@H]1O[C@H](CC2CC(C3CCNCC3)=NO2)[C@H](O)[C@@H](n2cc(-c3cc(F)c(F)c(F)c3)nn2)[C@H]1O` (mixture of isomers) [Example 3.01, (2R,3R,4R,5R,6R)-2-(hydroxymethyl)-6-(((RS)-3-(piperidin-4-yl)-4,5-dihydroisoxazol-5-yl)methyl)-4-(4-(3,4,5-trifluorophenyl)-1H-1,2,3-triazol-1-yl)tetrahydro-2H-pyran-3,5-diol] were 5710 nM and 300 nM. On to `CN1CCC(C2=NOC(C[C@H]3O[C@H](CO)[C@H](O)[C@H](n4cc(-c5cc(F)c(F)c(F)c5)nn4)[C@H]3O)C2)CC1` (mixture of isomers) [Example 3.02, (2R,3R,4R,5R,6R)-2-(hydroxymethyl)-6-(((RS)-3-(1-methylpiperidin-4-yl)-4,5-dihydroisoxazol-5-yl)methyl)-4-(4-(3,4,5-trifluorophenyl)-1H-1,2,3-triazol-1-yl)tetrahydro-2H-pyran-3,5-diol], for which the concentration for half-maximal inhibition (IC50) at human Gal-1 (hGal-1) came out at 4620 nM; on human Gal-3 (hGal-3) it was 340 nM. Take `CC(=O)N1CCC(C2=NOC(C[C@H]3O[C@H](CO)[C@H](O)[C@H](n4cc(-c5cc(F)c(F)c(F)c5)nn4)[C@H]3O)C2)CC1` (mixture of isomers) [Example 3.03, 1-(4-((RS)-5-(((2R,3R,4R,5R,6R)-3,5-dihydroxy-6-(hydroxymethyl)-4-(4-(3,4,5-trifluorophenyl)-1H-1,2,3-triazol-1-yl)tetrahydro-2H-pyran-2-yl)methyl)-4,5-dihydroisoxazol-3-yl)piperidin-1-yl)ethan-1-one]: the values for the IC50 on human Gal-1 (hGal-1) and at human Gal-3 (hGal-3) were 2490 nM and 150 nM, respectively. In the same order, the values of `CO[C@@H]1[C@@H](n2cc(-c3cc(F)c(F)c(F)c3)nn2)[C@@H](O)[C@@H](CO)O[C@@H]1CC1CC(C2CCNCC2)=NO1` (mixture of isomers) [Example 3.04, (2R,3R,4S,5R,6R)-2-(hydroxymethyl)-5-methoxy-6-(((RS)-3-(piperidin-4-yl)-4,5-dihydroisoxazol-5-yl)methyl)-4-(4-(3,4,5-trifluorophenyl)-1H-1,2,3-triazol-1-yl)tetrahydro-2H-pyran-3-ol] are 5650 nM and 550 nM. Taken in the same sequence, the figures for `CO[C@@H]1[C@@H](n2cc(-c3cc(F)c(F)c(F)c3)nn2)[C@@H](O)[C@@H](CO)O[C@@H]1CC1CC(C2CCN(C(C)=O)CC2)=NO1` (mixture of isomers) [Example 3.05, 1-(4-((RS)-5-(((2R,3R,4S,5R,6R)-5-hydroxy-6-(hydroxymethyl)-3-methoxy-4-(4-(3,4,5-trifluorophenyl)-1H-1,2,3-triazol-1-yl)tetrahydro-2H-pyran-2-yl)methyl)-4,5-dihydroisoxazol-3-yl)piperidin-1-yl)ethan-1-one] were 1860 nM and 290 nM. In the same order, the values of `OC[C@H]1O[C@H](CC2=NOC(C3CCNCC3)C2)[C@H](O)[C@@H](n2cc(-c3cc(F)c(F)c(F)c3)nn2)[C@H]1O` (mixture of isomers) [Example 3.09, (2R,3R,4R,5R,6R)-2-(hydroxymethyl)-6-(((RS)-5-(piperidin-4-yl)-4,5-dihydroisoxazol-3-yl)methyl)-4-(4-(3,4,5-trifluorophenyl)-1H-1,2,3-triazol-1-yl)tetrahydro-2H-pyran-3,5-diol] are 13300 nM and 840 nM. With `CC(=O)N1CCC(C2CC(C[C@H]3O[C@H](CO)[C@H](O)[C@H](n4cc(-c5cc(F)c(F)c(F)c5)nn4)[C@H]3O)=NO2)CC1` (mixture of isomers) [Example 3.18, 1-(4-((RS)-3-(((2R,3R,4R,5R,6R)-3,5-dihydroxy-6-(hydroxymethyl)-4-(4-(3,4,5-trifluorophenyl)-1H-1,2,3-triazol-1-yl)tetrahydro-2H-pyran-2-yl)methyl)-4,5-dihydroisoxazol-5-yl)piperidin-1-yl)ethan-1-one], the IC50 at human Gal-1 (hGal-1) was determined as 2220 nM; at human Gal-3 (hGal-3) it was 180 nM. As to `CO[C@@H]1[C@@H](n2cc(-c3cc(F)c(F)c(F)c3)nn2)[C@@H](O)[C@@H](CO)O[C@@H]1Cc1cc(C2CCN(C(=O)CC(F)(F)F)CC2)on1` [Example 3.51, 3,3,3-trifluoro-1-(4-(3-(((2R,3R,4S,5R,6R)-5-hydroxy-6-(hydroxymethyl)-3-methoxy-4-(4-(3,4,5-trifluorophenyl)-1H-1,2,3-triazol-1-yl)tetrahydro-2H-pyran-2-yl)methyl)isoxazol-5-yl)piperidin-1-yl)propan-1-one], on human Gal-3 (hGal-3), the half-inhibitory concentration (IC50) came out at 71 nM.
